Calls of active or inactive are those of the source. The calls are words filed in the database; no cut-off is given here.
Experiments:
Rattus norvegicus [1] = organism: Rattus norvegicus; assay: Inhibition of soluble guanylate cyclase in rat aortic smooth muscle cells assessed as decrease in SNP-induced cGMP production pretreated 30 min before SNP challenge by enzyme immunoassay
Rattus norvegicus [2] = organism: Rattus norvegicus; assay: Inhibition of soluble guanylate cyclase in rat aortic smooth muscle cells assessed as decrease in cGMP production at 100 uM after 30 mins by enzyme immunoassay
Rattus norvegicus [3] = organism: Rattus norvegicus; assay: Inhibition of particulate guanylate cyclase in rat aortic smooth muscle cells assessed as decrease in ANF-induced cGMP production at 100 uM pretreated 30 min before ANF challenge by enzyme immunoassay
Rattus norvegicus [4] = organism: Rattus norvegicus; assay: Inhibition of soluble guanylate cyclase in rat aortic smooth muscle cells assessed as decrease in SNP-induced cGMP production at 100 uM pretreated 30 min before SNP challenge by enzyme immunoassay
Rattus norvegicus [5] = organism: Rattus norvegicus; assay: Inhibition of soluble guanylate cyclase in rat aortic smooth muscle cells assessed as decrease in SNP-induced cGMP production at 1 uM pretreated 30 min before SNP challenge by enzyme immunoassay

Row | Structure (SMILES) | Activity (Rattus norvegicus [1]) | Activity (Rattus norvegicus [2]) | Activity (Rattus norvegicus [3]) | Activity (Rattus norvegicus [4]) | Activity (Rattus norvegicus [5])
1 | CCOCn1ccc2c3oncc3ccc21 | Dose-dependent effect | inactive | inactive | – | –
2 | CCOCn1ccc2c1CCc1cnn(-c3ccccc3)c1-2 | – | – | – | Active | –
3 | CCOCn1ccc2c1CCc1cnn(C)c1-2 | – | – | – | Active | Active
4 | CCOCn1ccc2c1CCc1cnoc1-2 | – | – | – | Active | inactive
